Test results published in US20060229324A1, “Quinazolin-4-one derivatives” (priority 2002, published 2006).

Legend:
[1] = target: human hematopoietic prostaglandin D2 synthase (Homo sapiens, UniProt O60760); assay: Inhibitory activity against spleen-type (hematopoietic) prostaglandin D2 synthase, [14C]PGH2 to PGD2, TLC; assay type: biochemical; settings: for inhibition at 10 µM / inhibition at 30 µM: read-out: Inhibitory Ratio of Prostaglandin D2 (PGD2) Synthase (%)
Experimental: A buffer solution of 100 mM Tris (hydroxymethyl)aminomethane/HCl buffer (pH8.0) containing glutathione (0.1 mM) and human hematopoietic prostaglandin D2 synthase (adequate quantity) was preincubated at 25° C. for 5 minutes in the presence or absence of a test compound, and then 14C labeled prostaglandin H2 ([14C]PGH2) (10 μM) was added, and the buffer solution was further incubated at 25° C. for one minute. A mixture of ether, methanol, and citric acid was added to the reaction mixture, and the ether layer was developed on silica gel thin-layer chromatography (TLC) (eluent=ether: methanol: acetic acid=90:2:1), and the PGD2 produced was measured by exposure to an imaging plate. The enzyme inhibitory rates of test compounds were calculated assuming the amount of production of PGD2 without the test compound being 100%.

[2] = test system: RBL-2H3, a rat basophilic leukemia cell to express hematopoietic prostaglandin D synthase; assay: Prostaglandin D2 production inhibition test using cells (A23187-induced, EIA); assay type: cell-based; settings: RBL-2H3 cells, A23187 2.5 μM; for inhibition at 10 µM: Rattus norvegicus, RBL-2H3, Drug Concentration 10 μM, read-out: Inhibitory Ratio of Prostaglandin D2 (PGD2) Production (%); for Inhibitory Ratio of Prostaglandin D2 (PGD2) Production (%): Drug Concentration 10 μM
Experimental: RBL-2H3, a rat basophilic leukemia cell to express hematopoietic prostaglandin D synthase, was inoculated in a 24 well plate and incubated overnight. After replacement with a medium in the presence or absence of a test compound, preincubation was carried out at 37° C. for one hour. After washing of the cells with PBS(-), the medium was replaced with a Hepes buffer solution (pH7.4) in the presence or absence of the test compound, and incubation was continued at 37° C. for 15 minutes. Then, calcium ionophore (A23187) at a final concentration of 2.5 μM was added, and incubation was carried out at 37° C. for 15 minutes to induce the production of PGD2. The supernatant of the cells was collected, and the amount of PGD2 flowed out in the supernatant was measured by EIA kit by Cayman. The inhibitory ratio of the production of PGD2 by the test compound was calculated assuming the amount of PGD2 produced by A23187 in the absence of the test compound as being 100%.

human hematopoietic prostaglandin D2 synthase, sequence (O60760 whole entry): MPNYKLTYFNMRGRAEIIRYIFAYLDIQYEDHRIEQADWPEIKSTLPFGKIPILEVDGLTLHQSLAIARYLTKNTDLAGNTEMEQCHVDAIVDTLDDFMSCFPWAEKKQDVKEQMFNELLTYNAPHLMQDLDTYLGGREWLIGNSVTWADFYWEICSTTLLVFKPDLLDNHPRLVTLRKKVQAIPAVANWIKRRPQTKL

| Structure (SMILES) | inhibition at 10 µM ([1]; Drug Concentration 10 μM) | inhibition at 30 µM ([1]; Drug Concentration 30 μM) | inhibition at 10 µM [2] | further results |
| --- | --- | --- | --- | --- |
| Cc1nn(-c2ccccc2)c(O)c1/C=N/n1c(C)nc2ccccc2c1=O [Compound 1, 3-[(5-hydroxy-3-methyl-1-phenylpyrazol-4-yl)methylidene]-amino-2-methyl-3,4-dihydroquinazolin-4-one] | 50% | 76% | 26% | – |
| CCOc1c(/C=N/n2c(C)nc3ccccc3c2=O)c(C)nn1-c1ccccc1 [Compound 3, 3-[(5-ethoxy-3-methyl-1-phenylpyrazol-4-yl)methylidene]amino-2-methyl-3,4-dihydroquinazolin-4-one] | 13% | – | 21% | – |
| Cc1nc2ccccc2c(=O)n1/N=C/c1c(C(F)(F)F)nn(-c2ccccc2)c1O [Compound 7, 3-[(5-hydroxy-1-phenyl-3-(trifluoromethyl)pyrazol-4-yl)-methylidene]amino-2-methyl-3,4-dihydroquinazolin-4-one] | 96% | 105% | 50% | – |
| Cc1nn(-c2ccc(Cl)cc2)c(O)c1C=Nn1c(C)nc2ccccc2c1=O [Compound 17, 3-{[1-(4-chlorophenyl)-3-methyl-5-hydroxypyrazol-4-yl]methylidene}amino-2-methyl-3,4-dihydroquinazolin-4-one] | 29% | – | 21% | – |
| Cc1nn(-c2ccc([N+](=O)[O-])cc2)c(O)c1C=Nn1c(C)nc2ccccc2c1=O [Compound 20, 3-{[3-methyl-1-(4-nitrophenyl)-5-hydroxypyrazol-4-yl]-methylidene}amino-2-methyl-3,4-dihydroquinazolin-4-one] | 37% | 83% | 15% | – |
| Cc1nn(-c2ccccc2)c(O)c1/C=N/n1c(-c2ccccc2)nc2ccccc2c1=O [Compound 24, 3-[(5-hydroxy-3-methyl-1-phenylpyrazol-4-yl)methylidene]-amino-2-phenyl-3,4-dihydroquinazolin-4-one] | – | – | 59% | – |
| Cc1nn(-c2ccccc2)c(O)c1/C=N/n1c(C(C)(C)C)nc2ccccc2c1=O [Compound 25, 2-tert-butyl-3-[(5-hydroxy-3-methyl-1-phenylpyrazol-4-yl)methylidene]amino-3,4-dihydroquinazolin-4-one] | – | – | 47% | – |
| COc1ccc(-c2nc3ccccc3c(=O)n2N=Cc2c(C)nn(-c3ccccc3)c2O)cc1 [Compound 30, 3-[(5-hydroxy-3-methyl-1-phenylpyrazol-4-yl)methylidene]-amino-2-(4-methoxyphenyl)-3,4-dihydroquinazolin-4-one] | – | – | – | Inhibitory Ratio of Prostaglandin D2 (PGD2) Synthase (%) ([1]; Drug Concentration 10 μM): 51%; Inhibitory Ratio of Prostaglandin D2 (PGD2) Synthase (%) ([1]; Drug Concentration 30 μM): 71%; Inhibitory Ratio of Prostaglandin D2 (PGD2) Production (%) [2]: 28% |
| COc1ccccc1-c1nc2ccccc2c(=O)n1N=Cc1c(C)nn(-c2ccccc2)c1O [Compound 32, 3-[(5-hydroxy-3-methyl-1-phenylpyrazol-4-yl)methylidene]-amino-2-(2-methoxyphenyl)-3,4-dihydroquinazolin-4-one] | – | – | – | Inhibitory Ratio of Prostaglandin D2 (PGD2) Synthase (%) ([1]; Drug Concentration 10 μM): 12%; Inhibitory Ratio of Prostaglandin D2 (PGD2) Synthase (%) ([1]; Drug Concentration 30 μM): 15% |
| Cc1nn(-c2ccccc2)c(O)c1/C=N/n1c(C)nc2cccc(C)c2c1=O [Compound 33, 2,5-dimethyl-3-[(5-hydroxy-3-methyl-1-phenylpyrazol-4-yl)methylidene]amino-3,4-dihydroquinazolin-4-one] | 27% | 61% | – | – |
| Cc1nn(-c2ccccc2)c(O)c1/C=N/n1c(C)nc2c(C)cccc2c1=O [Compound 34, 2,8-dimethyl-3-[(5-hydroxy-3-methyl-1-phenylpyrazol-4-yl)methylidene]amino-3,4-dihydroquinazolin-4-one] | 71% | 84% | – | – |
| Cc1nn(-c2ccccc2)c(O)c1/C=N/n1c(C)nc2ccc(Cl)cc2c1=O [Compound 35, 6-chloro-3-[(5-hydroxy-3-methyl-1-phenylpyrazol-4-yl)methylidene]amino-2-methyl-3,4-dihydroquinazolin-4-one] | 15% | 68% | – | – |
| Cc1nn(-c2ccccc2)c(O)c1/C=N/n1c(C)nc2cc(Cl)ccc2c1=O [Compound 36, 7-chloro-3-[(5-hydroxy-3-methyl-1-phenylpyrazol-4-yl)-methylidene]amino-2-methyl-3,4-dihydroquinazolin-4-one] | 39% | 60% | – | – |
| Cc1nn(-c2ccccc2)c(O)c1/C=N/n1c(C)nc2ccc(Br)cc2c1=O [Compound 37, 6-bromo-3-[(5-hydroxy-3-methyl-1-phenylpyrazol-4-yl)-methylidene]amino-2-methyl-3,4-dihydroquinazolin-4-one] | 15% | 56% | 32% | – |
| COc1cc2nc(C)n(/N=C/c3c(C)nn(-c4ccccc4)c3O)c(=O)c2cc1OC [Compound 38, 6,7-dimethoxy-3-[(5-hydroxy-3-methyl-1-phenylpyrazol-4-yl)-methylidene]amino-2-methyl-3,4-dihydroquinazolin-4-one] | 20% | 51% | – | – |
| Cc1nn(-c2ccccc2)c(O)c1C=NN1C(=O)c2ccccc2NC1CO (stereo not shown) [Compound 39, 3-[(5-hydroxy-3-methyl-1-phenylpyrazol-4-yl)methylidene]-amino-2-hydroxymethyl-1,2,3,4-tetrahydroquinazolin-4-one] | – | – | – | Inhibitory Ratio of Prostaglandin D2 (PGD2) Synthase (%) ([1]; Drug Concentration 10 μM): 77%; Inhibitory Ratio of Prostaglandin D2 (PGD2) Synthase (%) ([1]; Drug Concentration 30 μM): 46%; Inhibitory Ratio of Prostaglandin D2 (PGD2) Production (%) [2]: 70% |
| Cc1nn(-c2ccccc2)c(O)c1C=NN1C(=O)c2ccccc2NC1CO (stereo not shown) [Compound 40, 3-[(5-hydroxy-3-methyl-1-phenylpyrazol-4-yl)-methylidene]amino-2-hydroxymethyl-1,2,3,4-tetrahydroquinazolin-4-one] | – | – | 74% | – |
| Cc1nn(-c2ccccc2)c(O)c1C=NN1C(=O)c2ccccc2NC1CO (stereo not shown) [Compound 41, 3-[(5-hydroxy-3-methyl-1-phenylpyrazol-4-yl)-methylidene]amino-2-hydroxymethyl-1,2,3,4-tetrahydroquinazolin-4-one] | – | – | – | Inhibitory Ratio of Prostaglandin D2 (PGD2) Production (%) [2]: 80% |
| Cc1nc2ccccc2c(=O)n1N=Cc1c(C23CC4CC(CC(C4)C2)C3)nn(-c2ccccc2)c1O [Compound 44] | – | – | – | Inhibitory Ratio of Prostaglandin D2 (PGD2) Production (%) [2]: 100% |
| Cc1nc2ccccc2c(=O)n1N=Cc1c(-c2ccc(C(C)(C)C)cc2)nn(-c2ccccc2)c1O [Compound 45] | – | – | – | Inhibitory Ratio of Prostaglandin D2 (PGD2) Production (%) [2]: 100% |
